Source: patent US8293481B2, “Biomarkers for chronic vascular dysfunction” (Mayo Foundation for Medical Education and Research, priority 2006, dated 2012)

How the values were obtained:
Type in all cases: in vivo, rat
[1] = test system: panel of genes listed in b69 and b71 (Tmlhe, Af6, F2, Ywag, PPAR A, Resp18, Edn1, oxytocin and others); assay: Real-time PCR gene expression in aorta post MI, genes listed together as unchanged; conditions: post MI groups versus uninfarcted control
From the text: After intubation, rats were ventilated continuously (room air) using a small animal ventilator (Model 683, Harvard Apparatus, Holliston, Mass.). A left lateral thoracotomy incision was made along the 5th intercostal space and after the pericardium was opened, the heart was exteriorized using a retention suture placed at the apex. The left anterior descending coronary artery (LAD) was ligated twice using 6-0 prolene suture (Ethicon, Cornelia, Ga.). After chest closure with running 3-0 vicryl suture (Ethicon), rats were put in a recovery chamber with a heating pad and warming light. The post-operative survival rate reached 80%. […] Confirmation of microarray result by quantitative real-time PCR: The remaining RNA from the aortic or portal vein RNA sample was quantitatively converted to single stranded cDNA using the High-Capacity cDNA Archive Kit (Applied Biosystems, Foster City, Calif.). […] The synthesized cDNA was then mixed with TAQMAN® Universal PCR Master Mix (2.5 μl of cDNA+47.5 μl of RNase-free H2O+50 μl of Master Mix) and loaded onto 384-Well micro fluid cards for quantitative real-time PCR (TAQMAN® Low Density Arrays, Applied Biosystems). […] For each cDNA sample, four replicates were analyzed for real-time PCR. […] The array was then run on the Applied Biosystems 7900HT Fast Real-time PCR System, and the data were analyzed using an Applied Biosystems RQ Manager Software (SDS 2.1). […]

Taok1 (TAO kinase 1) = assay: Real-time PCR gene expression in aorta post MI; conditions: 2 weeks post-infarction
From the text: (§1) After intubation, rats were ventilated continuously (room air) using a small animal ventilator (Model 683, Harvard Apparatus, Holliston, Mass.). A left lateral thoracotomy incision was made along the 5th intercostal space and after the pericardium was opened, the heart was exteriorized using a retention suture placed at the apex. The left anterior descending coronary artery (LAD) was ligated twice using 6-0 prolene suture (Ethicon, Cornelia, Ga.). After chest closure with running 3-0 vicryl suture (Ethicon), rats were put in a recovery chamber with a heating pad and warming light. The post-operative survival rate reached 80%. […] Rats were fed a standard diet of Teklad rodent feed (Harlan) ad libitum and kept on a 12:12 h light-dark cycle. Rats were sacrificed at designated time intervals of 2 weeks and 4 weeks after surgery. […] Isolation of total RNA: […] Surrounding peri-adventitial tissues, fat, and endothelium were then carefully cleaned away and removed. The remaining vascular smooth muscle was then frozen with liquid nitrogen, pulverized into fine powder, and resuspended in 600 μl of Buffer RLT with β-ME (10 μl β-ME: 1 ml Buffer RLT, Qiagen, Valencia, Calif.). The lysate was pipetted directly onto a QIAshredder spin column (Qiagen) placed in a 2 ml collection tube and centrifuged for 5 minutes at 14000 rpm, 4° C. The supernatant was transferred to a new microcentrifuge tube and 1 volume of 70% ethanol was added and mixed. The cleared lysate was then transferred to an RNeasy mini-column (Qiagen) placed in a 2 ml collection tube and spun for 15 seconds at ≧10,000 rpm, 4° C. The flow-through was discarded and 700 μl of Buffer RW1 (Qiagen) was added to the RNeasy column. After the column was spun for 15 seconds at ≧10,000 rpm (4° C.), it was transferred into a new 2 ml collection tube, washed, spun twice with 500 μl Buffer RPE (Qiagen), and eluted with 40 μl of RNase-free water using a microcentrifuge (≧10,000 rpm, 4° C.) for 1 minute. Final RNA samples were stored at -20° C. to prevent degradation. Confirmation of microarray result by quantitative real-time PCR: The remaining RNA from the aortic or portal vein RNA sample was quantitatively converted to single stranded cDNA using the High-Capacity cDNA Archive Kit (Applied Biosystems, Foster City, Calif.). Briefly, 50 μl of RNA sample was mixed with 50 μl of 2×RT master mix (10 μl of 10× Reverse Transcription Buffer, 4 μl of 25× dNTPs, 10 μl of 10× random primers, 5 μl of […] Reverse Transcriptase at 50 U/μl, 21 μl of RNase-free H2O) and pipetted into 0.2 ml MICROAMP® PCR Reaction Tubes with Caps (Applied Biosystems, Foster City, Calif.). Reverse transcription was performed using a thermal cycler (Eppendorf Mastercycler gradient) with incubation conditions set at 25° C. for 10 minutes followed by 37° C. for 120 minutes. The synthesized cDNA was then mixed with TAQMAN® Universal PCR Master Mix (2.5 μl of cDNA+47.5 μl of RNase-free H2O+50 μl of Master Mix) and loaded onto 384-Well micro fluid cards for quantitative real-time PCR (TAQMAN® Low Density Arrays, Applied Biosystems). This was done with customer-selected TAQMAN® Gene Expression Assays preloaded into each of the 384 wells. The 7900 HT Gene Expression Micro Fluid Card Configuration 2 (Applied Biosystems) with a total of 24 targets was used; 22 targets were selected to include the results from the microarray study, and the remaining two targets were controls GAPDH and 18S controls. For each cDNA sample, four replicates were analyzed for real-time PCR. After all ports of the Micro Fluidic Card were loaded with cDNA, it was spun for even distribution into the wells using a Sorvall Legend centrifuge (1 minute at 1200 rpm). The array was then run on the Applied Biosystems 7900HT Fast Real-time PCR System, and the data were analyzed using an Applied Biosystems RQ Manager Software (SDS 2.1). […]

Agt (angiotensinogen) = assay: Real-time PCR gene expression in aorta post MI; conditions: 4 weeks post-infarction (increased at 2 weeks), FIG. 1
From the text: as §1

Rock2 (Rho kinase 2) = assay: Real-time PCR gene expression in aorta post MI; conditions: 2 weeks post-infarction
From the text: as §1

[2] = test system: Raf1 (v-raf-1 murine leukemia viral oncogene homolog 1); assay: Real-time PCR gene expression in aorta post MI; conditions: 2 weeks post-infarction
From the text: as §1

[3] = test system: Baat (bile acid-Coenzyme A amino acid N-acyltransferase); assay: Real-time PCR gene expression in aorta post MI; conditions: 2 weeks post-infarction
From the text: as §1

[4] = test system: IL-1β (interleukin 1 beta); assay: Real-time PCR gene expression in aorta post MI; conditions: 2 weeks post-infarction
From the text: as §1

[5] = test system: MIR16 (membrane interacting protein of RGS16); assay: Real-time PCR gene expression in aorta post MI; conditions: 4 weeks post-infarction (increased at 2 weeks), FIG. 1
From the text: as §1

[6] = test system: Fmr1 (fragile X mental retardation syndrome 1 homolog); assay: Real-time PCR gene expression in aorta post MI; conditions: 2 weeks post-infarction
From the text: as §1

[7] = test system: Gls2 (glutaminase 2 (liver, mitochondrial)); assay: Real-time PCR gene expression in aorta post MI; conditions: 2 weeks post-infarction
From the text: as §1

[8] = test system: Cxcl12 (chemokine (C-X-C motif) ligand 12); assay: Real-time PCR gene expression in aorta post MI; conditions: 4 weeks post-infarction (increased at 2 weeks), FIG. 1
From the text: as §1

C[C@H](CS)C(=O)N1CCC[C@H]1C(=O)O [Captopril, 1-[(2S)-3-mercapto-2-methylpropionyl]-L-proline]
did not demonstrate any difference: Taok1 expression, placebo or captopril therapy (Taok1 (TAO kinase 1)) | Rock2 expression, placebo or captopril therapy (Rock2 (Rho kinase 2)) | Raf1 expression, placebo or captopril therapy [2] | Baat expression, placebo or captopril therapy [3] | IL1-β expression, placebo or captopril therapy [4] | Fmr1 expression, placebo or captopril therapy [6] | Gls2 expression, placebo or captopril therapy [7]
no significant change: expression of 14 genes (Taok1, Raf1, Fmr1, Rock2, Baat, Gls2, Acot8, Tmlhe, Af6, F2, Ywag, PPAR A, Resp18, Edn1 and oxytocin) ([1]; 2 weeks post infarction) | expression of 14 genes (MIR16, Agt, Cxcl12, Seh1h, Cox5, HGF, Tmlhe, Af6, F2, Ywag, PPAR A, Resp18, Edn1 and oxytocin) ([1]; 4 weeks post infarction)
difference disappeared: Agt expression, captopril versus placebo (Agt (angiotensinogen)) | MIR16 expression, captopril versus placebo [5] | Cxcl12 expression, captopril versus placebo [8]
